Measured values reported in patent US20110207726A1, “Inhibitors of Human Cathepsin L, Cathepsin B, and Cathepsin S” (The Trustees of the University of Pennsylvania, priority 2008, published 2011).
Where two headings read alike, the source gives them in different places.

What was measured:
human liver cathepsin L = target: T1, human liver cathepsin L (Homo sapiens, UniProt P07711); assay: Cathepsin L assay, IC50 determination; format: biochemical
T1 construct: 8.7 ng/mL human liver cathepsin L (Calbiochem 219402); purchased Calbiochem 219402; host or cells: human liver
T1 sequence (P07711 114-288 limits assumed): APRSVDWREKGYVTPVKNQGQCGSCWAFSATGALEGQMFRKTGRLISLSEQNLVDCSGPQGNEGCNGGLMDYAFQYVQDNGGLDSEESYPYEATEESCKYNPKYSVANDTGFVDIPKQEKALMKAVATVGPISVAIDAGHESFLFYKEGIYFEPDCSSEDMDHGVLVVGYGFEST
T1 sequence (P07711 292-333 limits assumed): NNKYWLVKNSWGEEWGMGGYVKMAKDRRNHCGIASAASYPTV
Summary of the method: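 Enzyme (300 pM) pre-activated for 30 min in 20 mM sodium acetate, 1 mM EDTA, 5 mM cysteine, pH 5.5, then incubated 1 h at room temperature with 1 microM Z-Phe-Arg-AMC and compound. Fluorescent read-out on a microplate reader; IC50 in triplicate.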

Human liver cathepsin B = target: T2, Human liver cathepsin B (Homo sapiens, UniProt P07858); assay: Cathepsin B assay, IC50 determination; format: biochemical
T2 construct: Human liver cathepsin B (Calbiochem 219362, 65 ng/mL); purchased Calbiochem 219362; host or cells: human liver
Summary of the method: (§1)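 Spleen cathepsin S (40 ng/mL) with 15 microM Z-Phe-Arg-AMC and liver cathepsin B (65 ng/mL) with 15 microM Z-Arg-Arg-AMC, in 20 mM sodium acetate, 1 mM EDTA, 5 mM cysteine, pH 5.5. AMC fluorescence release monitored; IC50 measured in triplicate.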

Human spleen cathepsin S = target: T3, Human spleen cathepsin S (Homo sapiens, UniProt P25774); assay: Cathepsin S assay, IC50 determination; format: biochemical
T3 construct: Human spleen cathepsin S (Calbiochem 219344, 40 ng/mL); purchased Calbiochem 219344; host or cells: human spleen
T3 sequence (P25774 115-331): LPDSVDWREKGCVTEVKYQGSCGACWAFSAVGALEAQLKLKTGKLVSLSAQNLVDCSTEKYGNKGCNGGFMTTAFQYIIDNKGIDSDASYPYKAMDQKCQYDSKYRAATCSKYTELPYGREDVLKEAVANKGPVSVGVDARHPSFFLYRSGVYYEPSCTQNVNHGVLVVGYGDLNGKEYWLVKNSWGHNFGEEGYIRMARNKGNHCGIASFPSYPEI
Summary of the method: as §1

[1] = target: T4, Human neutrophil cathepsin G (Homo sapiens, UniProt P08311); assay: Selectivity assay, cathepsin G; format: biochemical; conditions: for IC50: Cathepsin G, no preincubation
T4 construct: Human neutrophil cathepsin G (Calbiochem 219373, 4.2 μg/mL); purchased Calbiochem 219373; host or cells: human neutrophils
T4 sequence (P08311 21-243 limits assumed): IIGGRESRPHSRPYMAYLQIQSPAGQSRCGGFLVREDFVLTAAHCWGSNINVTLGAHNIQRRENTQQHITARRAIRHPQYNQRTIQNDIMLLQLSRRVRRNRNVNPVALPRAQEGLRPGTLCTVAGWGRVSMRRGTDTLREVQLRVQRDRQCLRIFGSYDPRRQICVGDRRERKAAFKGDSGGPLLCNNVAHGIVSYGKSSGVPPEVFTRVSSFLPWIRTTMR
Experimental: Compound No. 1 was assayed for inhibition against papain and cathepsins B, G, K, S, and V. Papain from Carica papaya (Calbiochem 5125, 11 ng/mL), human cathepsin K (Calbiochem 342001, 35 ng/mL), human spleen cathepsin S (Calbiochem 219344, 40 ng/mL), and human cathepsin V (Calbiochem 219467, 39 ng/ml) were assayed using Z-Phe-Arg-AMC substrate at 20 μM, 20 μM, 15 μM, and 1 μM, respectively. Human liver cathepsin B (Calbiochem 219362, 65 ng/mL) was assayed using 15 μM Z-Arg-Arg-AMC substrate (Bachem I-1135). Human neutrophil cathepsin G (Calbiochem 219373, 4.2 μg/mL) was assayed using 15 μM Suc-Ala-Ala-Pro-Phe-AMC substrate (Sigma S9761). All reactions were performed in 20 mM sodium acetate buffer containing 5 mM cysteine and 1 mM EDTA, pH 5.5. Reaction progress was monitored using the Envision microplate reader. IC50 values were measured in triplicate.

[2] = Stability in DMSO and cathepsin L assay buffer; format: physicochemical
From the text: Some variability in IC50 values determined for Compound (iii) prompted us to explore the stability of both Compound No. 1 and Compound (iii) in solvents relevant to the bioassay.

Plasmodium falciparum = assay: Malaria assay, in vitro propagation; format: cell-based; conditions: read-out: IC50 against Plasmodium falciparum
Experimental: Eight two-fold serial dilutions of Compound No. 1 in RPMI 1640 media (Invitrogen 1 1 875) containing L-Glutamine, 50 mg/L hypoxanthine, 6 g/L HEPES, 0.5% Albumax 11 bovine serum (Invitrogen 11021), 0.225% sodium bicarbonate, and 1 pgIrnL gentamicin were performed in Corning 3704 microplates. […] In addition, 30 μL normal red blood cells and 30 μL infected red blood cells were added to two control columns containing 10 μL media. The plates were incubated at 37° C. in a 92% humidity chamber with 5% CO2, 5% O2, and 90% N2 for 48 hours to allow for two cycles of red blood cell rupture and invasion to take place. Forty μL BrightGlo™ (Promega E2610) were added to each well and centrifuged. After 5 minutes, luminescence was measured using the Envision microplate reader.

CCc1ccccc1NC(=O)CSC(=O)NNC(=O)[C@H](Cc1c[nH]c2ccccc12)NC(=O)OC(C)(C)C [Compound No. 1]
Selectivity Index @ 10 min (human liver cathepsin L; Cathepsin L, human liver, 10 min): 1 | IC50 (human liver cathepsin L; Cathepsin L, human liver, no preincubation, 30 min, read-out: IC50 @ 30 min): 75 ± 5 nM | IC50 (human liver cathepsin L; Cathepsin L, human liver, no preincubation, 60 min, read-out: IC50 @ 60 min): 56 ± 4 nM | IC50 (human liver cathepsin L; Cathepsin L, human liver, no preincubation, 90 min, read-out: IC50 @ 90 min): 50 ± 3 nM | Selectivity Index @ 30 min (human liver cathepsin L; Cathepsin L, 30 min): 1 | Selectivity Index @ 60 min (human liver cathepsin L; Cathepsin L, 60 min): 1 | Selectivity Index @ 90 min (human liver cathepsin L; Cathepsin L, 90 min): 1 | Selectivity Index (human liver cathepsin L; Cathepsin L, IC50 protease / IC50 cathepsin L, over 10-90 min): 1 | IC50 (human liver cathepsin L; IC50 @ 10 min, Cathepsin L, human liver, no preincubation, 10 min): 155 ± 12 nM | IC50 (human liver cathepsin L; Table 1, read-out: IC50 Cat L): 56 nM | IC50 (human liver cathepsin L; Table 17, n = 3, C, S or O at the sulfur position, read-out: Cathepsin L inhibitory activity IC50): 56 ± 4 nM | IC50 (human liver cathepsin L; no preincubation of enzyme and inhibitor, read-out: IC50 against cathepsin L (no preincubation)): 56 nM | Selectivity Index @ 10 min (Human liver cathepsin B; Cathepsin B vs cathepsin L, 10 min): 48 | Selectivity Index @ 30 min (Human liver cathepsin B; Cathepsin B vs cathepsin L, 30 min): 40 | Selectivity Index @ 60 min (Human liver cathepsin B; Cathepsin B vs cathepsin L, 60 min): 45 | Selectivity Index @ 90 min (Human liver cathepsin B; Cathepsin B vs cathepsin L, 90 min): 50 | Selectivity Index (Human liver cathepsin B; Cathepsin B vs cathepsin L, over 10-90 min): 40-50 | IC50 (Human liver cathepsin B; Cathepsin B, no preincubation, 30 min, read-out: IC50 @ 30 min): 2980 ± 295 nM | IC50 (Human liver cathepsin B; Cathepsin B, no preincubation, 60 min, read-out: IC50 @ 60 min): 2530 ± 73 nM | IC50 (Human liver cathepsin B; Cathepsin B, no preincubation, 90 min, read-out: IC50 @ 90 min): 2510 ± 139 nM | IC50 (Human liver cathepsin B; IC50 @ 10 min, Cathepsin B, human liver, no preincubation, 10 min): 7490 ± 693 nM | IC50 (Human liver cathepsin B; Table 1, read-out: IC50 Cat B): 4450 nM | Selectivity Index @ 10 min (Human spleen cathepsin S; Cathepsin S vs cathepsin L, 10 min): 7 | Selectivity Index @ 30 min (Human spleen cathepsin S; Cathepsin S vs cathepsin L, 30 min): 10 | Selectivity Index @ 60 min (Human spleen cathepsin S; Cathepsin S vs cathepsin L, 60 min): 13 | Selectivity Index @ 90 min (Human spleen cathepsin S; Cathepsin S vs cathepsin L, 90 min): 14 | Selectivity Index (Human spleen cathepsin S; Cathepsin S vs cathepsin L, over 10-90 min): 7-14 | IC50 (Human spleen cathepsin S; Cathepsin S, no preincubation, 30 min, read-out: IC50 @ 30 min): 745 ± 10 nM | IC50 (Human spleen cathepsin S; Cathepsin S, no preincubation, 60 min, read-out: IC50 @ 60 min): 724 ± 11 nM | IC50 (Human spleen cathepsin S; Cathepsin S, no preincubation, 90 min, read-out: IC50 @ 90 min): 721 ± 29 nM | IC50 (Human spleen cathepsin S; IC50 @ 10 min, Cathepsin S, human spleen, no preincubation, 10 min): 1110 ± 134 nM | IC50 (Human spleen cathepsin S; Table 1, read-out: IC50 Cat S): 960 nM | inhibitory activity against cathepsin G (in words) [1]: no inhibitory activity | IC50 ([1]; human neutrophil, 10 min): > 50000 nM | IC50 ([1]; 30 min, read-out: IC50 @ 30 min): > 50000 nM | IC50 ([1]; 60 min, read-out: IC50 @ 60 min): > 50000 nM | IC50 ([1]; 90 min, read-out: IC50 @ 90 min): > 50000 nM | stability in DMSO ([2]; DMSO, room temperature): completely stable | stability in cathepsin L assay buffer ([2]; NaOAc (20 mM), pH 5.5, EDTA (1 mM), cysteine (5 mM)): completely stable | IC50 (Plasmodium falciparum): 15400 ± 600 nM
